From publication PMC6863598, “Binding of Monovalent and Bivalent Ligands by Transthyretin Causes Different Short- and Long-Distance Conformational Changes” (Journal of Medicinal Chemistry, 2019)
One block for each molecule: values may come before it.

Experiments:
[1] = target: TTR (human wild type TTR isolated from serum) (Homo sapiens, UniProt P02766); assay: Surface plasmon resonance (Biacore T200) of tafamidis binding to immobilised biotinylated TTR; details: for k2 (off-rate, first binding site) / k4 (off-rate, second binding site): dissociation data fitted to a double exponential
Method: Data were fitted to the model described by Scheme 1. The measured fractional response is then given by {[AB + (2ABB)]/Ai} where Ai is the notional concentration of TTR on the surface. Rate parameters were determined from the global fitting of the association data to the binding equilibria as defined by Scheme 1. […]
Surface Plasm on Resonance. Human wild type TTR isolated from serum (Scipac) was biotinylated according to the method of Alhamadsheh et al . 3 using EZ -link sulfo NHS -LC biotin (Thermoscientific) and immobilised in […]
phosphate buffered saline (PBS), 0.05% Tween20 to achieve 3000-4000 response units of biotinylated TTR bound to the SA-chip surface following the manufacturer’s instructions. To block unoccupied sites, biocytin (50 µM) was flowed across the chip (at a flow rate of 50 µl/min, for 1 min). Finally, the chip was washed with Hepes Buffer Saline, pH 7. 4 (+ 0. 05 % Tween20) running buffer until the SPR signal reached a stable background level.
For all procedures, the running buffer was used at a flow rate of […]. The immobilised TTR surface was […]
30 µl/min) and then running buffer alone to monitor the dissociation phase. Between injections sufficient time

TTR HBP = target: T1, TTR HBP (Homo sapiens, UniProt P02766); assay: NMR observation of ligand binding to the recombinant TTR halogen binding pocket; details: DSS added for reference purposes, Figure S4
T1 construct: hexahistidine (TEV-cleavable) (cleaved yes); made in house; host or cells: E. coli BL21 Star (DE3), peTM11 plasmid
Method: NMR spectra were acquired at 310 K with a Bruker AVANCE 700 and 800 MHz NMR spectrometer on a U-^2H, ^13C, ^15N-labeled recombinant TTR samples at concentrations of 50–90 μM in PBS buffer at pH 7.0 and 7.4 in a mixture H2O/D2O 90/10%.
The addition of 4,4-dimethyl-4-silapentane-1-sulfonic acid (DSS) for reference purposes led to the observation that DSS binds to the TTR HBP (see Figure S4).

TTR [2] = details: simultaneous occupancy of the two binding sites; cited from earlier work
TTR [3] = system: TTR; parameters: method as in PMID 28298647; details: cited from earlier work
[4] = SPR, ± standard deviation, listed as Tafamidis

k3 (on-rate, second binding site) ([1]; SPR global fit, Scheme 1, ± standard deviation): (3.5 ± 1.0) × 10^6 M^–1 s^–1
k1 (on-rate, first binding site) ([1]; SPR global fit, Scheme 1, ± standard deviation, three independent experiments): (4.5 ± 2.2) × 10^6 M^–1 s^–1
difference in the observed affinities at the two sites ([1]; SPR, Kd2 vs Kd1): 7 fold
k2 (off-rate, first binding site) ([1]; SPR, ± standard deviation): 0.008 s^–1
k4 (off-rate, second binding site) ([1]; SPR, ± standard deviation): 0.06 s^–1
k2 (off-rate, first binding site) [1, 4]: (0.008 ± 0.001) s^–1
k4 (off-rate, second binding site) [1, 4]: (0.060 ± 0.006) s^–1
k2 (off-rate measured by SPR) ([1]; first site, Figure 7 legend): 0.008 Hz
k4 (off-rate measured by SPR) ([1]; second site, Figure 7 legend): 0.06 Hz
Structure (SMILES): O=C(O)c1ccc2nc(-c3cc(Cl)cc(Cl)c3)oc2c1 [tafamidis]

Structure (SMILES): C[Si](C)(C)CCCS(=O)(=O)O [DSS, 4,4-dimethyl-4-silapentane-1-sulfonic acid]
binding to the TTR HBP (TTR HBP): binds

Structure (SMILES): O=C(O)c1ccccc1Nc1cc(Cl)c(OCCCCCCCOc2c(Cl)cc(Nc3ccccc3C(=O)O)cc2Cl)c(Cl)c1 [mds84]
nature of binding by TTR (TTR [2]): pseudo-irreversible
protection against the proteolytic cleavage of the peptide bond 48–49 (TTR [3]): highest protection
